Source: patent publication US20060125896A1, “Ink tank, ink jet recording method, and ink tank regeneration process” (Canon Kabushiki Kaisha, priority 2004, published 2006)

Experiment: Solubility in pure water with pH 7 at 25° C.
Type: physicochemical
Settings: pH 7, 25° C., compared with the coloring material
Experimental: In order to inspect depositing quality due to the influence of pH, the solubility in pure water with pH7 at 25° C. has been compared between the compound represented by the general formula (I) or a salt thereof and the compound represented by the general formula (II) to find that the compound represented by the general formula (II) has a lower solubility than the compound represented by the general formula (I) or a salt thereof. This fact also has supported that the compound represented by the general formula (II) has a high depositing quality.

Structure (SMILES): O=C([O-])c1ccccc1Nc1nc(O)nc(Nc2ccccc2C(=O)[O-])n1.[Na+].[Na+] [Exemplified Compound B]
- solubility in pure water: lower than the solubility of Exemplified Compound A
